In PubChem BioAssay (NCI):
Where “and” joins values, the source holds several entries; their conditions need not be identical. Identical values can stand only once.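 Protocol summary: plate cells (96-well), add compound at 5 concentrations, incubate 48 h, interpolate endpoints linearly. GI50 = concentration required for 50% inhibition of growth. At the TGI there is no net growth.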

Legend:
Assay in all cases: NCI tumour cell line growth inhibition, 48 h
MDA-MB-435 = tested on: MDA-MB-435
NCI-H460 lung = tested on: NCI-H460 lung
HCT-15 colon = tested on: HCT-15 colon
EKVX NSCLC = tested on: EKVX NSCLC
SK-MEL-5 melanoma = tested on: SK-MEL-5 melanoma
HT29 colon = tested on: HT29 colon
A549 NSCLC = tested on: A549 NSCLC
BT-549 breast = tested on: BT-549 breast
NCI-H226 lung = tested on: NCI-H226 lung
HOP-92 NSCLC = tested on: HOP-92 NSCLC

SMILES	TGI (MDA-MB-435)	TGI (NCI-H460 lung)	TGI (HCT-15 colon)	TGI (EKVX NSCLC)	TGI (SK-MEL-5 melanoma)	TGI (HT29 colon)	TGI (A549 NSCLC)	TGI (BT-549 breast)	TGI (NCI-H226 lung)	TGI (HOP-92 NSCLC)	GI50 (MDA-MB-435)	GI50 (NCI-H460 lung)	GI50 (HCT-15 colon)	GI50 (EKVX NSCLC)	GI50 (SK-MEL-5 melanoma)	GI50 (HT29 colon)	GI50 (A549 NSCLC)	GI50 (NCI-H226 lung)	GI50 (HOP-92 NSCLC)	GI50 (BT-549 breast)
O=P1(O)c2ccccc2CSCc2ccccc21	> 100 µM	> 100 µM	> 100 µM	> 100 µM	> 100 µM	> 100 µM	> 100 µM	> 100 µM	> 100 µM	> 100 µM										
Nc1nc(N)c2cc(Sc3ccc(Cl)cc3)ccc2n1	1.91 µM	11.9 µM	14.9 µM	17.6 µM	2.06 µM	2.4 µM	12.9 µM		23.4 µM	7 µM	0.403 µM	0.314 µM	0.491 µM	1.66 µM	0.762 µM	0.516 µM	0.254 µM	9.71 µM	1.51 µM	
Nc1cc2c(c3ccccc13)C(CCl)CN2C(=O)c1cc2cc(NC(=O)c3cc4ccccc4o3)ccc2[nH]1 (configuration not stated)	< 0.11 µM		1.15 µM	0.43 µM				0.00708 µM			> 0.11 µM	0.000351 µM	> 0.11 µM							
COC(=O)CC12CC(NC(=O)c3csc([C@@H](C[C@H](C(C)C)N(C)C(=O)[C@@H](NC(=O)[C@H]4CCCCN4C)C(C)C)OC(C)=O)n3)(C1)C2	0.00165 µM and 0.00449 µM	> 33.3 µM	> 33.3 µM	> 33.3 µM	0.0487 µM and 0.074 µM	> 33.3 µM	> 33.3 µM	0.246 µM and 0.253 µM		4.73 µM	0.000341 µM and 0.00333 µM	0.00322 µM and 0.0116 µM	0.0183 µM and 0.0254 µM	0.00949 µM and 0.0229 µM	0.00191 µM and 0.00412 µM	0.00364 µM and 0.0055 µM	0.00777 µM and 0.013 µM	0.00492 µM and 0.0217 µM	0.0174 µM	0.00575 µM and 0.022 µM
COc1ccc(-c2nc(Nc3ccc(F)cc3)nc(Nc3ccc4c(c3)nc(C)n4Cc3ccccc3)n2)cc1	> 100 µM	20.9 µM	> 100 µM		24.2 µM	3.56 µM	> 100 µM	> 100 µM	> 100 µM	> 100 µM	3.27 µM	3.35 µM	2.95 µM		3.2 µM	1.76 µM	3.59 µM	5.34 µM	2.59 µM	3.52 µM
Nc1ncnc2occ(-c3ccc(NC(=O)Nc4cc(C(F)(F)F)ccc4F)cc3)c12	11.3 µM and 5.59 µM	11.2 µM and 6.94 µM	21.7 µM and 13.5 µM	16.6 µM and 13.2 µM	7.02 µM and 6.93 µM	11.6 µM and 7.03 µM	18.8 µM and 11.5 µM	17.4 µM and 9.93 µM	18.7 µM and 7.01 µM	12.1 µM and 11.5 µM	4.35 µM and 2.37 µM	4.86 µM and 2.96 µM	6.31 µM and 3.97 µM	5.12 µM and 3.97 µM	3.56 µM and 3.57 µM	4.42 µM and 2.64 µM	6.44 µM and 3.16 µM	0.717 µM and 0.929 µM	3.98 µM and 3.4 µM	6.83 µM and 3.42 µM
Fc1ccc(-c2nn3c(COc4ccccc4Cl)nnc3s2)cc1Oc1ccccc1	> 100 µM	> 100 µM	> 100 µM	> 100 µM	> 100 µM	> 100 µM	> 100 µM	> 100 µM	> 100 µM	45.6 µM	33.2 µM	42.6 µM	38.7 µM	49 µM	53.3 µM	44.9 µM	40.2 µM	32.7 µM	15.2 µM	41.1 µM
